In assay [1] the test system is Collagen-induced arthritis (CIA) in DBA/1 mice. As to the kind of experiment: Collagen-induced arthritis (CIA) in DBA/1 mice. Format: in vivo. Conditions: for severity of arthritis compared with control mice: single drug, oral daily for 10 consecutive days, ROFLUMILAST 1 mg/kg, PUMAFENTRINE hydrochloride 3 mg/kg, significant on days 35 and 39. On the procedure:
Collagen-induced arthritis (CIA) in DBA/1 mice: Mice were immunized intradermally with 200 μg/mouse of type II (CII) bovine collagen in Freund's complete adjuvant (FCA) and challenged intraperitoneally 21 days later with 200 μg/mouse of CII in saline. The mice were then administered orally either with 1 mg/kg/day of 3-Cyclopropylmethoxy-4-difluoromethoxy-N-(3,5-dichloropyrid-4-yl)-benzamide [INN: ROFLUMILAST], 3 mg/kg/day of (−)-cis-9-ethoxy-8-methoxy-2-methyl-1,2,3,4,4a,10b-hexahydro-6-(4-diisopropylaminocarbonylphenyl)-benzo[c][1,6]naphthyridine hydrochloride [INN: PUMAFENTRINE hydrochloride], 1 mg/kg/day of METHOTREXATE, or with combinations of METHOTREXATE and the PDE inhibitors for 10 consecutive days, starting 2 days after challenge injection. Control mice received either METHOTREXATE alone (1 mg/kg/day) or the vehicle only.
DBA/1 mice were obtained from Harlan Olac (Bicester, UK) and used 8 weeks old. CIA was induced as described previously (Ruchatz, H., et al., J Immunol. 1998, 160(11):5654-60). Briefly, mice were immunised by intradermal injection of 200 μg of acidified type II collagen (Sigma, Poole UK) emulsified in Freund's Complete adjuvant (FCA, Difco, Detroit, Mich., USA). Collagen (200 μg in PBS) was injected intraperitoneally on day 21 (challenge). Mice were individually ear marked for identification. They were monitored daily and scored every other day for signs of arthritis as follows: 0=normal, 1=erythema, 2=erythema plus swelling, 3=extension/loss of function, and total score=sum of four limbs. Paw thickness was measured with a dial-calliper (Kroeplin, Munich, Germany). […] (3 mg/kg, calculated for PUMAFENTRINE), METHOTREXATE (1 mg/kg), or combinations were administered orally daily by a gavage tube for 10 consecutive days. […] Treatment was withdrawn on day 33 and the mice monitored for a further 8 days. Influence of drug treatments on mean clinical index, arthritic paws and paw thickness were analysed by one-way ANOVA at days 31, 35, and 39. Between group differences in incidence of arthritis were analysed by chi-square test.

The subject of assay [2] is rheumatoid arthritis patients unresponsive to METHOTREXATE alone. As to conditions: combination with METHOTREXATE; cited from earlier work.
The test system of assay [3] is rheumatoid arthritis patients with active disease despite METHOTREXATE treatment. As to conditions: in combination with a fixed low-dose (7.5 mg per week) of METHOTREXATE; small number of patients; cited from earlier work.

“Also recorded” adds a separate entry of the source.

As to `CN(Cc1cnc2nc(N)nc(N)c2n1)c1ccc(C(=O)N[C@@H](CCC(=O)O)C(=O)O)cc1` [METHOTREXATE, N-(p{[(2,4-diamino-6-pteridinyl)methyl]methylamino}benzoyl)-L-(+)-glutamic acid], in assay [1] (METHOTREXATE alone 1 mg/kg/day, oral, 10 days), the “clinical improvement compared with control mice” value is recorded as “failed to produce a significant clinical improvement; also recorded: failed to demonstrate any clinical improvement”.

`CCOc1cc2c(cc1OC)C(c1ccc(C(=O)N(C(C)C)C(C)C)cc1)=N[C@H]1CCN(C)C[C@@H]21.Cl` [PUMAFENTRINE hydrochloride, (−)-cis-9-ethoxy-8-methoxy-2-methyl-1,2,3,4,4a,10b-hexahydro-6-(4-diisopropylaminocarbonylphenyl)-benzo[c][1,6]naphthyridine hydrochloride]: the “severity of arthritis compared with control mice” value in assay [1] (hydrochloride) is “effective in reducing the severity of arthritis; also recorded: significantly less severe disease”.

Turning to `O=C(Nc1c(Cl)cncc1Cl)c1ccc(OC(F)F)c(OCC2CC2)c1` [ROFLUMILAST, 3-Cyclopropylmethoxy-4-difluoromethoxy-N-(3,5-dichloropyrid-4-yl)-benzamide], the “severity of arthritis compared with control mice” value in assay [1] is listed as “effective in reducing the severity of arthritis; also recorded: significantly less severe disease”.

As to ETANERCEPT, the “efficacy in rheumatoid arthritis” value in assay [2] is listed as “effective”.

As for “INFLIXIMAB: chimeric human-murine monoclonal antibody, a specific inhibitor of tumour necrosis factor alpha”, in assay [3], the “degree and duration of efficacy” value is “enhanced degree and duration of efficacy”.

Source of the values: patent US20070270441A1, “Combination” (Altana Pharma AG, priority 2001, published 2007).
